Results published in patent US6087358A (priority 1997, dated 2000).
Values after ≈ are worked out from the molar mass of the structure shown. Like-named read-outs stand apart in the source and are kept apart here.

Tests used:
[1] = tested on: Mycobacterium bovis BCG (recombinant strain); test: microbe, parasite or virus in culture; type: cell-based; settings: Mycobacterium tuberculosis variant bovis BCG, BCG, 144 h; 6 days 37° C.; read-out: MIC, column A, 3(S) compounds
[2] = tested on: Helicobacter pylori; test: In vitro inhibition of Helicobacter pylori (broth microdilution MIC); settings: Helicobacter pylori
[3] = tested on: Cryptosporidium parvum; test: Inhibition of Cryptosporidium parvum (ELISA, infected HCT-8 monolayers); type: cell-based; settings: Cryptosporidium parvum, HCT-8, 48 h, read-out: Percent Inhibition of C. parvum
Protocol: Susceptibility testing against Cryptosporidium was performed according to published procedures (K. Woods, M. Nesterenko, S. Upton, "Development of a microtiter ELISA to quantify development of Cryptosporidium parvum in vitro," FEMS Microbiology Letters, 128:89-94 (1995).
Compounds were solubilized to a concentration of 100 mg/mL in 100% DMSO. DMSO solutions of test compounds were added to the test wells of a microplate at a volume that produced a final concentration of DMSO of 0.2%. Monolayers of human ileocecal adenocarcinoma cells (HCT-8) were prepared by growth in RPMI 1640 medium in 96-Well tissue culture trays for 24 h. Oocysts of C. parvum were allowed to excyst in 10% bleach for 10 min prior to use. Monolayers were then infected with 2-3×10^4 oocysts/well and incubated in the presence or absence of compound for 48 h at 35° C. in 5% CO2 and 95% humidity. Background consisted of wells containing killed oocysts (freeze thaw cycle following 30 sec exposure to liquid nitrogen). Growth control wells were infected with 2-3×10^4 oocysts/well in the absence of test compounds. At the end of incubation, wells were washed and fixed by adding 100 uL of 4% formalin in phosphate buffered saline (pH 7.3) per well for 2 h. After blocking with 1% bovine serum albumin, and 0.002% Tween 20, 50 uL of rat anti-Cryptosporidium membrane protein antiserum was added. After 30 min, wells were washed in PBS and 50 uL of secondary antibody (goat anti-rat antibody conjugated with horseradish peroxidase) was added. After 20-30 min, wells were washed again in PBS and 50 uL of 3,3',5,5'-tetramethylbenzidine solution was added. Plates were allowed to develop for 10-15 min and the optical density was read at 630 nm. Percent inhibition was calculated by comparing the optical density of the drug treated group to that of the untreated control.

[4] = tested on: Clostridium difficile ATCC 17857; test: In vitro inhibition of Clostridium difficile (Oxyrase broth microdilution MIC); type: cell-based; settings: Clostridioides difficile, ATCC17857; Clostridium difficile ATCC 17857, Oxyrase broth; read-out: MIC, column D, 3(S) compounds
[5] = tested on: Mycobacterium tuberculosis (rMTB); test: In vivo antimycobacterial activity against M. tuberculosis (rMTB) in lungs of mice; set-up: species or system Mycobacterium tuberculosis Erdman, in female BALB/c mice; settings: 25 mg/kg daily oral gavage, CM-2, 10 days, control 117,258 (PA-824, 636, 1297) or 22,751 (others)
[6] = tested on: Mycobacterium tuberculosis (rMTB); test: In vivo antimycobacterial activity against M. tuberculosis (rMTB) in spleens of mice; set-up: species or system Mycobacterium tuberculosis Erdman, in female BALB/c mice; settings: 25 mg/kg daily oral gavage, CM-2, 10 days, control 422,866 (PA-824, 636, 1297) or 362,274 (others)
[7] = tested on: Helicobacter pylori Strain 4187E; test: In vivo activity against Helicobacter pylori strain 4187E in mice; set-up: species or system in outbred female white mice; settings: oral gavage, four days
From the text: Outbred female white mice (20 grams) were infected by oral gavage with 10^7 -10^8 colony forming units of H. pylori strain 4187E (originally isolated from a patient with a duodenal ulcer). […] Treatment continued for four days. Clarithromycin, administered at the same concentration and for the same duration, was included as a positive control. One group of animals also received an equal volume of formulation vehicle alone, to provide a negative control.
Five days after cessation of treatment, all animals were sacrificed, the stomachs were removed, opened, and the contents washed out. The entire mucosal surface was then spread evenly over the surface of an agar plate containing antibiotics appropriate for the prevention of growth of microorganisms other than Helicobacter spp. After seven days incubation under microaeropilic conditions at 37° C., culture plates were evaluated for bacterial growth.

[8] = tested on: Helicobacter felis; test: In vivo activity against Helicobacter felis in mice (urease test of stomach biopsy); set-up: species or system in female CD-1 mice; settings: 50 mg/kg three times daily oral gavage, CM-2, four days; vehicle and untreated 100
Protocol: Female CD-1 mice weighing 30 grams were infected by oral gavage with 10^8 -10^9 colony forming units of H. felis. This infection process was repeated two, and four days, thereafter. Colonization of the stomach was allowed to occur over a seven day period. Animals were segregated into groups of five, and were treated three times daily by oral gavage with 50 mg/kg of test drugs prepared in the CM-2 formulation vehicle (Example 52). Treatment continued for four days. One group of animals received an equal volume of formulation vehicle alone, to ensure that the vehicle had no effect on the Helicobacter infection. A separate untreated control group was also included.
All animals were then sacrificed, the stomachs were removed, opened, and the contents washed out. A five millimeter diameter biopsy was removed, and transferred to a urease test solution containing a pH-sensitive dye, which was then incubated at 37° C. incubator for 24 hours. A blue or purple coloration in this test solution signifies a positive reaction, indicating the continued presence of viable Helicobacter bacteria; a negative result is indicated by a yellow coloration. Viable Helicobacter bacteria produce a urease enzyme which converts urea, of which there is an abundant supply in the stomach (from saliva and gastric juices), into bicarbonate and ammonia, which are strong bases. This mechanism is considered to provide conditions more amenable to the survival of Helicobacter in the otherwise acidic conditions prevalent in the stomach.

Work on `CCCCCCCCC(=O)N[C@@H]1COc2nc([N+](=O)[O-])cn2C1` [PA-1139] yielded an MIC [1] of 0.06 µg/mL (≈ 0.185 µM), an MIC ([2]; 72 h, read-out: MIC against Helicobacter pylori, strain 17 (Table 5A)) of over 25 µg/mL and an MIC ([2]; 72 h, read-out: MIC against Helicobacter pylori, strain 19 (Table 5A)) of 1.5 µg/mL (≈ 4.62 µM). For the same compound, the MIC ([2]; 72 h, read-out: MIC against Helicobacter pylori, strain 20 (Table 5A)) was 0.8 µg/mL (≈ 2.47 µM), the MIC ([2]; 72 h, read-out: MIC against Helicobacter pylori, strain 40 (Table 5A)) was 0.8 µg/mL (≈ 2.47 µM) and the MIC ([2]; 72 h, read-out: MIC against Helicobacter pylori, strain 43 (Table 5A)) was 1.5 µg/mL (≈ 4.62 µM). It also gave an MIC ([2]; 72 h, read-out: MIC against Helicobacter pylori, strain 76 (Table 5A)) of 25 µg/mL (≈ 77.1 µM), an MIC ([2]; ATCC43504, 72 h, read-out: MIC against Helicobacter pylori, strain ATCC 43504 (Table 5A)) of over 25 µg/mL and an inhibition at 25 µg/mL ([3]; 25 μg/mL) of -13%. It also gave an inhibition at 50 µg/mL ([3]; 50 μg/mL) of -3%, an inhibition at 100 µg/mL ([3]; 100 μg/mL) of 56% and an inhibition at 200 µg/mL ([3]; 200 μg/mL) of 98.9%. The MIC [4] was 3.12 µg/mL (≈ 9.62 µM).

For `O=C(Nc1ccc(OC(F)(F)F)cc1)O[C@@H]1COc2nc([N+](=O)[O-])cn2C1` [PA-1297, 4-(Trifluoromethoxy)phenyl Carbamate of 3S Hydroxy-6-nitro-2H-3,4-dihydo-[2-1b]imidazopyran], the MIC [1] was 0.015 µg/mL (≈ 0.0386 µM), the MIC [4] was 0.78 µg/mL (≈ 2.01 µM) and the “Average RLUs, M. tuberculosis (rMTB) in lungs” value (from here on “Average RLUs … in lungs”) [5] was 3,354 RLUs. For the same compound, the “Average RLUs, M. tuberculosis (rMTB) in spleens” value (“Average RLUs … in spleens” for short) [6] was 66,473 RLUs, the “% Eradication” value ([7]; once daily 25 mg/kg) was 0% and the “% Eradication” value ([7]; twice daily 5 mg/kg) was 0%. The “% Eradication” value ([7]; twice daily 50 mg/kg) was 0% and the “% Survival” value [8] was 100%.

With `O=C(Nc1ccc(C(F)(F)F)cc1)O[C@@H]1COc2nc([N+](=O)[O-])cn2C1` [PA-1327, 4-(Trifluoromethyl)phenyl Carbamate of 3S Hydroxy-6-nitro-2H-3,4-dihydo-[2-1b]imidazopyran] the MIC [1] was 0.25 µg/mL (≈ 0.672 µM), the “Average RLUs … in lungs” value [5] was 1,561 RLUs and the “Average RLUs … in spleens” value [6] was 68,362 RLUs.

For `O=C(NCc1ccc(OC(F)(F)F)cc1)O[C@@H]1COc2nc([N+](=O)[O-])cn2C1` [PA-1328, 4-(Trifluoromethoxy)benzyl Carbamate of 3S Hydroxy-6-nitro-2H-3,4-dihydo-[2-1b]imidazopyran], the MIC [1] was 0.03 µg/mL (≈ 0.0746 µM), the “Average RLUs … in lungs” value [5] was 3,000 RLUs and the “Average RLUs … in spleens” value [6] was 251,264 RLUs.

For `O=C(N[C@@H]1COc2nc([N+](=O)[O-])cn2C1)OCc1ccc(OC(F)(F)F)cc1` [PA-1343], the MIC [1] was 0.015 µg/mL (≈ 0.0373 µM), the MIC ([2]; 72 h, read-out: MIC against Helicobacter pylori, strain B40, Met-S, Clar-S (Table 5B)) was 0.8 µg/mL (≈ 1.99 µM) and the MIC ([2]; 72 h, read-out: MIC against Helicobacter pylori, strain B76, Met-R, Clar-S (Table 5B)) was 12 µg/mL (≈ 29.8 µM). For the same compound, the MIC ([2]; 72 h, read-out: MIC against Helicobacter pylori, strain C1649, Met-R, Clar-R (Table 5B)) was 12 µg/mL (≈ 29.8 µM), the MIC ([2]; 72 h, read-out: MIC against Helicobacter pylori, strain C11403, Met-S, Clar-R (Table 5B)) was 1.5 µg/mL (≈ 3.73 µM) and the MIC ([2]; 72 h, read-out: MIC against Helicobacter pylori, strain C19765 (Table 5B)) was 12 µg/mL (≈ 29.8 µM). The MIC ([2]; 72 h, read-out: MIC against Helicobacter pylori, strain RD26, Met-S, Clar-S (Table 5B)) was 3 µg/mL (≈ 7.46 µM), the MIC ([2]; 72 h, read-out: MIC against Helicobacter pylori, strain rd26, Met-S, Clar-S (Table 5B)) was 2 µg/mL (≈ 4.97 µM) and the MIC ([2]; ATCC43504, 72 h, read-out: MIC against Helicobacter pylori, strain ATCC 43504, Met-R, Clar-S (Table 5B)) was 10 µg/mL (≈ 24.9 µM). The MIC ([2]; ATCC43526, 72 h, read-out: MIC against Helicobacter pylori, strain ATCC 43526, Met-R, Clar-S (Table 5B)) was 12 µg/mL (≈ 29.8 µM), the MIC ([2]; ATCC43579, 72 h, read-out: MIC against Helicobacter pylori, strain ATCC 43579, Met-S, Clar-S (Table 5B)) was 1.5 µg/mL (≈ 3.73 µM) and the MIC ([2]; ATCC43629, 72 h, read-out: MIC against Helicobacter pylori, strain ATCC 43629, Met-S, Clar-S (Table 5B)) was 3 µg/mL (≈ 7.46 µM). For the same compound, the “Average RLUs … in lungs” value [5] was 606 RLUs, the “Average RLUs … in spleens” value [6] was 51,928 RLUs and the “% Survival” value [8] was 00%.
